Source: patent US11872296B2, “Preservation compositions” (Conopco, Inc., priority 2018, dated 2024)

What was measured:
[1] = test system: Gram negative non-fermenting bacteria: Pseudomonas aeruginosa, Pseudomonas putida & Burkholderia cepacia; experiment: Liquid broth checkerboard assay (MIC, ΣFIC synergy), Pool 1; format: cell-based; details: tryptic soy broth, 30° C., 24 hours, ΣFIC<1 synergistic
Description: (§1) The differing behaviours of inhibitory antimicrobials in isolation and mixtures have been widely explored using the concept of the Fractional Concentration and Fractional Inhibitory Concentration (FIC). See for instance JRW Lambert and R Lambert, J. Appl. Microbiol 95, 734 (2003); T. Jadavji, CG Prober and R Cheung, Antimicrobial Agents and Chemotherapy 26, 91 (1984), and WO 2004/006876. These parameters can be defined as follows:
(§2) FC (component a)=Concentration of component a tested in the mixture/MIC (component a tested as a single active)
(§3) FIC (component a)=MIC (component a tested in the mixture)/MIC (component a tested as a single active)
(§4) The interactions between antimicrobials can be additive, synergistic or possibly antagonistic depending on whether the efficacy of the combination is equivalent to, greater than or less than that obtained for the same total concentration of the individual components when tested alone.
(§5) These relationships can be expressed mathematically by summing the fractional MIC values for all the components present in the mixture to give the “fractional inhibitory index”: ΣFIC=FIC(component 1)+FIC(component 2) Such that: ΣFIC≥1 corresponds to additive or antagonistic activity ΣFIC<1 corresponds to synergistic activity
(§6) Liquid broth assays (MIC and checkerboard) were conducted to identify the minimum concentration(s) of individual and binary combinations of preservation chemicals. A modified methodology to ISO 20776-1:2006 was utilised for the screening as follows. Stock solutions of preservation chemicals and tryptic soy broth were inoculated with 1-5×10^6 microorganisms and incubated at 30° C. for 24 hours, after which optical densities at OD600nm were measured. […] Preservation chemicals were screened at a concentration range of 0.0156-2%.

[2] = test system: Gram negative fermenting bacteria: Enterobacter gergoviae & Klebsiella species; experiment: Liquid broth checkerboard assay (MIC, ΣFIC synergy), Pool 2; format: cell-based; details: tryptic soy broth, 30° C., 24 hours, ΣFIC<1 synergistic
Description: as §1, §2, §3, §4, §5, §6

[3] = binary combination with Citric Acid
[4] = binary combination with Itaconic acid

| SMILES | ΣFIC synergy score [1, 3] | ΣFIC synergy score [1, 4] | ΣFIC synergy score [2, 3] | ΣFIC synergy score [2, 4] |
| --- | --- | --- | --- | --- |
| CCCCc1ccc(O)cc1 [4-n-butyl phenol] | 0.50 | 0.44 | 0.59 | 0.50 |
| C=CCc1ccc(O)c(OC)c1 [Eugenol] | 0.75 | 0.38 | 0.53 | 0.38 |
| CCOc1cc(C=O)ccc1O [Ethylvanillin] | 0.63 | 0.56 | 0.69 | 0.63 |
